The test system of test [1] is #1 HNSCC PDC. The test is described as follows: Pillar-based spheroid invasion assay of #1 HNSCC PDC. It is filed as cell-based, human. As to conditions: #1 HNSCC PDC spheroids, 80 μM of drugs, three days.
Test [2] relates to A549 cell line. Kind of test: Pillar-based spheroid invasion assay of A549 cell line.
Description: Before using the pillar array, the pillar array and cell-encapsulation apparatus were immersed in 70% ethanol for 30 min for sterilization followed by complete drying at room temperature.
The test system of test [3] is A549 cells. Kind of test: Transwell invasion assay (Matrigel-coated membrane). Format: cell-based. The note with it: 1 μM docetaxel, 24 h, Matrigel-coated membrane (FIG. 6). The method, then:
In the present invention, transwell for conventional invasion assay was used. The membrane of the transwell was coated with 100 μl Matrigel (Corning, NY, USA) basement membrane matrix diluted 9-fold. A549 cells (2×10^4 cells/well) were seeded in the insert of the transwell with RPMI media without FBS. 500 μl RPMI media with FBS was filled in the wells to serve as a chemoattractant. After 24 h of cell incubation, migrated cells on the insert were fixed with 95% ethyl alcohol and then stained with 0.5% crystal violet.
Based on the fluorescence intensity, spheroid was identified, and invasive cells were calculated by subtracting the spheroid area from the total cell area. A549 cells formed a spheroid two days after cell aggregation and incubation. Cells surrounding spheroid migrated for an additional three days of culture. To check the invasiveness of A549 cells, the present inventors conducted invasion assay using Transwell (24-well transwell, Cat. No. 3422, Corning, USA) in no drug and 1 μM Docetaxel.

Regarding `N.N.[Cl][Pt][Cl]` [cisplatin, Cisplatin], the “cell migration/invasion (spheroid morphology)” value in test [1] is given as “effectively inhibited cell migration/invasion”.

`CC(=O)O[C@@]12CO[C@@H]1C[C@H](O)[C@@]1(C)C(=O)[C@H](O)C3=C(C)[C@@H](OC(=O)[C@H](O)[C@@H](NC(=O)OC(C)(C)C)c4ccccc4)C[C@@](O)([C@@H](OC(=O)c4ccccc4)[C@H]21)C3(C)C` [docetaxel, Docetaxel]: the cell invasion result in test [2] (A549 spheroids on pillar) is reported as “inhibited cell invasion”. In addition, in test [2] (A549 spheroids on pillar (FIG. 8)), the “size of a single big spheroid (spheroid area)” value is “reduced the size of a single big spheroid”. The “total cell area, which means cell viability” value in test [2] (A549 spheroids on pillar, as a function of docetaxel concentration (FIG. 7)) is reported as “decreased depending on docetaxel concentration”. The invasion ratio result in test [2] (A549 spheroids on pillar, docetaxel treated, control 52% (FIG. 9)) is “lower than 35%”. Also, the “cell migration/invasion (spheroid morphology)” value in test [1] is reported as “effectively inhibited cell migration/invasion”. The “invasion of A549 in the Transwell” value in test [3] is recorded as “inhibited the invasion”.

In the case of `CN[C@@H]1C[C@H]2O[C@@](C)([C@@H]1OC)n1c3ccccc3c3c4c(c5c6ccccc6n2c5c31)C(=O)NC4` [staurosporine, Staurosporine], in test [1], the “cell migration/invasion (spheroid morphology)” value is reported as “effectively inhibited cell migration/invasion”.

The values above are taken from patent US12092575B2, “Measuring method of cell migration using the rate of cell invasion” (MBD Co., Ltd., priority 2021, dated 2024).
